Where “and” joins values, the source holds several entries; their conditions need not be identical. Identical values can stand only once. Inconclusive results and toxic doses are left out. How the source made its calls: active means survival T/C of 150% or more; inactive means T/C below 125% in these data.
Test system: P388 leukemia ip, CD2F1 mice, survival T/C
Assay: NCI In Vivo Anticancer Drug Screen. Data for tumor model P388 Leukemia (intraperitoneal) in CD2F1 (CDF1) mice
Details: endpoint: median survival time, higher = longer survival
Outline: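 Mice carrying the transplanted tumor received test compound or vehicle. Survival was recorded in each group, and the value is the treated-group measurement divided by that of the vehicle-treated control group.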

[1] = dose: 25.0 mg/kg/injection, schedule: Q01DX009 (ip), vehicle: Klucel (hydroxypropylcellulose) (HPC)
[2] = dose: 50.0 mg/kg/injection, schedule: Q01DX009 (ip), vehicle: Klucel (hydroxypropylcellulose) (HPC)
[3] = dose: 60.0 mg/kg/injection, schedule: Q01DX005 (ip), vehicle: saline with Tween-80
[4] = dose: 120.0 mg/kg/injection, schedule: Q01DX005 (ip), vehicle: saline with Tween-80
[5] = dose: 240.0 mg/kg/injection, schedule: Q01DX005 (ip), vehicle: saline with Tween-80
[6] = dose: 50.0 mg/kg/injection, schedule: Q01DX005 (ip), vehicle: saline with Tween-80
[7] = dose: 100.0 mg/kg/injection, schedule: Q01DX005 (ip), vehicle: saline with Tween-80
[8] = dose: 200.0 mg/kg/injection, schedule: Q01DX005 (ip), vehicle: saline with Tween-80
[9] = dose: 50.0 mg/kg/injection, schedule: Q01DX005 (ip), vehicle: saline
[10] = dose: 50.0 mg/kg/injection, schedule: Q01DX005 (ip), vehicle: Klucel (hydroxypropylcellulose) (HPC)
[11] = dose: 100.0 mg/kg/injection, schedule: Q01DX005 (ip), vehicle: Klucel (hydroxypropylcellulose) (HPC)
[12] = dose: 12.5 mg/kg/injection, schedule: Q01DX009 (ip), vehicle: Klucel (hydroxypropylcellulose) (HPC)
[13] = dose: 50.0 mg/kg/injection, schedule: Q01DX009 (ip), vehicle: saline with Tween-80
[14] = dose: 100.0 mg/kg/injection, schedule: Q01DX009 (ip), vehicle: saline with Tween-80

Measured: T/C

CN1/C(=C/C(=S)SCC(=O)c2ccccc2)C=Cc2ccccc21
inactive: dose: 50.0 mg/kg/injection, schedule: Q04DX002 (ip), vehicle: saline with Tween-80 94 % of control | dose: 100.0 mg/kg/injection, schedule: Q04DX002 (ip), vehicle: saline with Tween-80 90 % of control | dose: 200.0 mg/kg/injection, schedule: Q04DX002 (ip), vehicle: saline with Tween-80 88 % of control

CCOC(CNC(C)c1ccc2cc(OC)c(OC)cc2c1)OCC (stereo not given)
inactive: [1] 100 % of control | [2] 114 % of control | dose: 100.0 mg/kg/injection, schedule: Q01DX009 (ip), vehicle: Klucel (hydroxypropylcellulose) (HPC) 116 % of control | dose: 200.0 mg/kg/injection, schedule: Q01DX009 (ip), vehicle: Klucel (hydroxypropylcellulose) (HPC) 121 % of control

COc1ccc(C(=O)CCc2c(-c3ccccc3)[nH]c3ccccc23)c(O)c1
inactive: [3] 107 % of control | [4] 100 % of control | [5] 97 % of control

CNCC(=O)NC(CO)C(=O)NC(CO)C(=O)NC1C(C(N)=O)OC(n2ccc(N)nc2=O)C(O)C1O (stereo not given)
inactive: dose: 0.1 mg/kg/injection, schedule: Q01DX009 (ip), vehicle: water 101 % of control | dose: 0.2 mg/kg/injection, schedule: Q01DX009 (ip), vehicle: water 100 % of control | dose: 0.4 mg/kg/injection, schedule: Q01DX009 (ip), vehicle: water 117 % of control | dose: 0.8 mg/kg/injection, schedule: Q01DX009 (ip), vehicle: water 95 % of control

N#C/C(=N\NC(=O)c1ccccc1Cl)c1ccccc1Cl
inactive: [6] 97 % of control | [7] 106 % of control

O=C1CN(c2cccc(C(F)(F)F)c2)C(=O)CN1/N=C/c1cccnc1
inactive: [6] 94 % of control | [7] 97 % of control | [8] 94 % of control

COc1c(OC2OC(CO)C(O)C(O)C2O)cc2c(c1OC)-c1ccc(OC)c(=O)cc1C(NC(C)=O)CC2 (stereo not given)
inactive: dose: 12.5 mg/kg/injection, schedule: Q01DX005 (ip), vehicle: saline 108 % of control | dose: 25.0 mg/kg/injection, schedule: Q01DX005 (ip), vehicle: saline 106 % of control | [9] 117 % of control and 121 % of control

Cc1cn(C2CC(O)C(CNC(=O)CCl)O2)c(=O)[nH]c1=O (stereo not given)
inactive: [9] 105 % of control | dose: 100.0 mg/kg/injection, schedule: Q01DX005 (ip), vehicle: saline 98 % of control | dose: 200.0 mg/kg/injection, schedule: Q01DX005 (ip), vehicle: saline 109 % of control

CCC(CC)C1NC(C(=O)O)CS1 (stereo not given)
inactive: dose: 50.0 mg/kg/injection, schedule: Q01DX009 (ip), vehicle: suspension in saline 93 % of control | dose: 100.0 mg/kg/injection, schedule: Q01DX009 (ip), vehicle: suspension in saline 96 % of control | dose: 200.0 mg/kg/injection, schedule: Q01DX009 (ip), vehicle: suspension in saline 92 % of control

CC(C)CS(=O)(=O)OCCCCOS(=O)(=O)CC(C)C
inactive: [10] 115 % of control | [11] 111 % of control

Cn1cccc1/C=N/N1CC(=O)N(c2ccccc2)CC1=O
inactive: [6] 108 % of control | [7] 100 % of control

CC(C(=O)O)S(=O)(=O)C(C)C(=O)O (stereo not given)
inactive: dose: 100.0 mg/kg/injection, schedule: Q04DX002 (ip), vehicle: saline 98 % of control | dose: 200.0 mg/kg/injection, schedule: Q04DX002 (ip), vehicle: saline 91 % of control

O=C1C(=O)N(c2ccccc2)C(=O)N1CCN1C(=O)C(=O)N(c2ccccc2)C1=O
inactive: dose: 3.75 mg/kg/injection, schedule: Q01DX005 (ip), vehicle: saline with Tween-80 100 % of control | dose: 7.5 mg/kg/injection, schedule: Q01DX005 (ip), vehicle: saline with Tween-80 90 % of control | dose: 15.0 mg/kg/injection, schedule: Q01DX005 (ip), vehicle: saline with Tween-80 95 % of control

COc1ccc2c(c1OC)C[N+]1(C)CCc3cc4c(cc3C1=C2)OCO4 (stereo not given)
inactive: dose: 0.63 mg/kg/injection, schedule: Q01DX009 (ip), vehicle: water 114 % of control | dose: 1.25 mg/kg/injection, schedule: Q01DX009 (ip), vehicle: water 108 % of control | dose: 2.5 mg/kg/injection, schedule: Q01DX009 (ip), vehicle: water 100 % of control | dose: 5.0 mg/kg/injection, schedule: Q01DX009 (ip), vehicle: water 101 % of control | dose: 10.0 mg/kg/injection, schedule: Q01DX009 (ip), vehicle: water 110 % of control

CNC(=O)c1c(-c2ccc(F)cc2)noc1C
inactive: [3] 103 % of control | [4] 100 % of control | [5] 103 % of control

O=c1[nH]c(-c2cccnc2)nnc1-c1ccc(Cl)cc1
inactive: [6] 102 % of control | [7] 103 % of control | [8] 96 % of control

O=C(O)CN(CC(=O)O)C1CC1N(CC(=O)O)CC(=O)O (stereo not given)
inactive: dose: 50.0 mg/kg/injection, schedule: Q01DX009 (ip), vehicle: saline 97 % of control | dose: 100.0 mg/kg/injection, schedule: Q01DX001 (ip), vehicle: saline 96 % of control | dose: 100.0 mg/kg/injection, schedule: Q01DX009 (ip), vehicle: saline 100 % of control | dose: 200.0 mg/kg/injection, schedule: Q01DX001 (ip), vehicle: saline 100 % of control | dose: 200.0 mg/kg/injection, schedule: Q01DX009 (ip), vehicle: saline 97 % of control | dose: 400.0 mg/kg/injection, schedule: Q01DX001 (ip), vehicle: saline 97 % of control

O=C1C=C(Nc2ccccn2)C(=O)C=C1Nc1ccccn1
inactive: [6] 107 % of control | [7] 107 % of control | [8] 105 % of control

[CH3][Sn]([CH3])([CH3])[O][N+](=O)[O-]
inactive: dose: 0.37 mg/kg/injection, schedule: Q01DX009 (ip), vehicle: saline 111 % of control | dose: 0.75 mg/kg/injection, schedule: Q01DX009 (ip), vehicle: saline 91 % of control

c1ccc(-c2nc3cnccc3o2)cc1
inactive: dose: 6.25 mg/kg/injection, schedule: Q01DX009 (ip), vehicle: Klucel (hydroxypropylcellulose) (HPC) 103 % of control | [12] 105 % of control | [1] 114 % of control | [2] 112 % of control

Cc1cc(NS(=O)(=O)c2ccc(NC(=O)NCCCl)cc2)no1
inactive: dose: 30.0 mg/kg/injection, schedule: Q01DX005 (ip), vehicle: Klucel (hydroxypropylcellulose) (HPC) 99 % of control | dose: 60.0 mg/kg/injection, schedule: Q01DX005 (ip), vehicle: Klucel (hydroxypropylcellulose) (HPC) 98 % of control | dose: 120.0 mg/kg/injection, schedule: Q01DX005 (ip), vehicle: Klucel (hydroxypropylcellulose) (HPC) 100 % of control | dose: 240.0 mg/kg/injection, schedule: Q01DX005 (ip), vehicle: Klucel (hydroxypropylcellulose) (HPC) 100 % of control

c1ccc2cc(N=NNc3ccc4ccccc4c3)ccc2c1
inactive: [13] 122 % of control | dose: 50.0 mg/kg/injection, schedule: Q04DX003 (ip), vehicle: saline with Tween-80 90 % of control | [14] 95 % of control | dose: 100.0 mg/kg/injection, schedule: Q04DX003 (ip), vehicle: saline with Tween-80 100 % of control | dose: 200.0 mg/kg/injection, schedule: Q04DX003 (ip), vehicle: saline with Tween-80 109 % of control

CC(C)(C)c1cc(C(O)(C(F)(F)F)C(F)(F)F)c2c(c1)C(C(F)(F)F)(C(F)(F)F)OS2(=O)=O
inactive: dose: 25.0 mg/kg/injection, schedule: Q01DX005 (ip), vehicle: Klucel (hydroxypropylcellulose) (HPC) 93 % of control | [10] 103 % of control | [11] 92 % of control | dose: 200.0 mg/kg/injection, schedule: Q01DX005 (ip), vehicle: Klucel (hydroxypropylcellulose) (HPC) 91 % of control

CCCCCC#CC(=O)OC
inactive: dose: 25.0 mg/kg/injection, schedule: Q01DX009 (ip), vehicle: saline with Tween-80 109 % of control | [13] 109 % of control | [14] 104 % of control | dose: 200.0 mg/kg/injection, schedule: Q01DX009 (ip), vehicle: saline with Tween-80 118 % of control

C1CCC([Se][Se]C2CCCC2)C1
inactive: [12] 104 % of control | [1] 110 % of control | [2] 99 % of control and 101 % of control

C=C1C(=O)OC2/C=C(\C)CC(O)/C=C(/CO)CC(OC(=O)/C(C)=C/C)C12 (stereo not given)
inactive: dose: 7.5 mg/kg/injection, schedule: Q01DX009 (ip), vehicle: saline + alcohol 111 % of control | dose: 10.0 mg/kg/injection, schedule: Q01DX009 (ip), vehicle: saline + alcohol 121 % of control

From PubChem BioAssay AID330 (DTP/NCI, 2004)
